A word on the IC50: it is the concentration that gives 50% inhibition.

SMILES strings stand for the structures. Read-outs that look alike come from different tables or passages of the source.

We go through 21 compounds from patent US20030229113A1, “Keratinocyte growth inhibitors and hydroxamic acid derivatives” (priority 2003, published 2003).

Assay [1] has as its system epidermal hyperplasia induced by TPA. Put plainly: TPA-induced epidermal hyperplasia on dorsal skin of mice. The class given is in vivo, male BALB/c mice. The conditions noted are these: ED50; topical in acetone at 1 minute, 24 and 48 hours after TPA; epidermal thickness 72 hours after TPA. Here is the method: After backs of male BALB/c mice were shaved, 20 micro 1 of TPA-acetone solution (50 μM) was applied to the dorsal skin surface in an area of ca. 1 cm^2. A volume of 20 micro 1 of test compound-acetone solution was applied to the same area a minute, 24 hours and 48 hours after TPA application (the treated group). In the non-treated group, acetone was applied instead of the test compound. In the control group, acetone was applied instead of TPA and the test compound. The mice were sacrificed, and the skin tissues treated with TPA or the test compound were excised 72 hours after TPA application. Then the tissues were fixed with 10% formalin and embedded in paraffin according to the conventional method. The vertical sections including the center of the TPA- or the test compound-treated area were prepared and they were stained by hematoxylin-eosin. The epidermal thickness was measured using an ocular microscope. The amount of the test compound required for achieving 50% inhibition against the mean epidermal thickness of the non-treated group (ED50) was calculated, wherein the mean epidermal thickness of the non-treated group was 100% and that of the control group was 0%.

Assay [2] relates to solubilizing enzyme of HB-EGF. Put plainly: Inhibition of TPA-stimulated release of HB-EGF from HT-1080 transfectant expressing HB-EGF/alkaline phosphatase fusion protein. It is filed as cell-based, human. The conditions noted are these: HT-1080 HB-EGF-AP transfectant, TPA 60 nM for 60 min, AP activity in conditioned medium (OD405). As to the method:
Human fibrosarcoma HT-1080 stable transfectant expressing fusion protein of HB-EGF and human placental alkaline phosphatase (AP) were used for following experiments.
The cultured transfectant was treated with Trypsin-EDTA solution, and suspended in Minimum Essential Medium (without phenol red; supplemented with 10% heat-inactivated fetal calf serum; MEM) at the concentration of 1×10^5 cells/ml. Each 0.2 ml of the cell suspension was dispensed into individual wells of 96 well microplate, and incubated overnight in the CO2 incubator (37° C.). After the incubation, the conditioned medium was removed, and the wells were washed once with 0.2 ml of phosphate buffered saline. The cells were treated with 0.1 ml of compound solution [compound solutions in dimethylsulfoxide (DMSO) were diluted 100 times with MEM] for 30 min at 37° C. Then the compound solutions were removed, and cells were treated with 0.2 ml of TPA solution (120 μM) of stock solution was diluted to 60 nM with MEM) containing same concentration of the compound for 60 min at 37° C. The cells treated same procedure without compound were used as control.
After these treatments, each 0.1 ml of conditioned medium was transferred to individual wells of new 96 well microplate and incubated at 65° C. for 10 min to inactivate endogenous alkaline phosphatase. One hundred microliter of substrate solution (1 mg/ml of p-nitrophenyl phosphate in 0.01% magnesium chloride/1 M diethanolamine) for AP was added to each well and incubated for 120 min at room temperature in the dark. The OD405 of each well was measured with microplate reader. The IC50 values of the compounds were calculated from the concentration-inhibition curves.

On to `O=C(NO)C1Cc2nccnc2CN1S(=O)(=O)c1ccc(OC(F)(F)F)cc1` (single isomer, unassigned; (+)) [the compound(17), (+)-N-Hydroxy-6-(4-trifluoromethoxybenzenesulfonyl)-5,6,7,8-tetrahydropyrido[3,4-b]pyrazine-7-carboxamide], for which the “Amount of test compound required for 50% suppression of epidermal hyperplasia” value in assay [1] was 48 10^−6 g/cm^2. Further, in assay [2] (read-out: IC50), the IC50 was determined as 330 nM.
The like results for `CCOCCOc1ccc(S(=O)(=O)N2Cc3nccnc3CC2C(=O)NO)cc1` (single isomer, unassigned; (+)) [the compound(27), (+)-N-Hydroxy-6-[4-(2-ethoxyethoxy)benzenesulfonyl]-5,6,7,8-tetrahydropyrido[3,4-b]pyrazine-7-carboxamide] were, in that order, 58 10^−6 g/cm^2 and 36 nM.
The matching figures for `O=C(NO)C1Cc2nccnc2CN1S(=O)(=O)c1ccccc1` (single isomer, unassigned; (+)) [the compound(36), (+)-N-Hydroxy-6-benzenesulfonyl-5,6,7,8-tetrahydropyrido[3,4-b]pyrazine-7-carboxamide]: 130 10^−6 g/cm^2 and 510 nM.
The like results for `O=C(NO)C1Cc2nccnc2CN1S(=O)(=O)c1ccc(F)cc1` (single isomer, unassigned; (+)) [the compound(37), (+)-N-Hydroxy-6-(4-fluorobenzenesulfonyl)-5,6,7,8-tetrahydropyrido[3,4-b]pyrazine-7-carboxamide] were, in that order, 120 10^−6 g/cm^2 and 810 nM.
Consider `Nc1ccc(S(=O)(=O)N2Cc3nccnc3CC2C(=O)NO)cc1` (single isomer, unassigned; (+)) [the compound(39), (+)-N-Hydroxy-6-(4-aminobenzenesulfonyl)-5,6,7,8-tetrahydropyrido[3,4-b]pyrazine-7-carboxamide], for which the half-inhibitory concentration (IC50) in assay [2] (read-out: IC50) was found to be 1800 nM.
In the case of `O=C(NO)C1Cc2nccnc2CN1S(=O)(=O)c1ccc(-c2ccccc2)cc1` (single isomer, unassigned; (+)) [the compound(40), (+)-N-Hydroxy-6-(biphenyl-4-sulfonyl)-5,6,7,8-tetrahydropyrido[3,4-b]pyrazine-7-carboxamide], in assay [1], the “Amount of test compound required for 50% suppression of epidermal hyperplasia” value is 20 10^−6 g/cm^2. For the same compound, the IC50 in assay [2] (read-out: IC50) stood at 1500 nM.
As for `O=C(NO)C1Cc2nccnc2CN1S(=O)(=O)c1ccc(O)cc1` (single isomer, unassigned; (+)) [the compound(41), (+)-N-Hydroxy-6-(4-hydroxybenzenesulfonyl)-5,6,7,8-tetrahydropyrido[3,4-b]pyrazine-7-carboxamide], in assay [2] (read-out: IC50), the IC50 turned out to be 300 nM.
As to `CC(=O)c1ccc(S(=O)(=O)N2Cc3nccnc3CC2C(=O)NO)cc1` (single isomer, unassigned; (+)) [the compound(42), (+)-N-Hydroxy-6-(4-acetylbenzenesulfonyl)-5,6,7,8-tetrahydropyrido[3,4-b]pyrazine-7-carboxamide], the IC50 in assay [2] (read-out: IC50) worked out at 2200 nM.
`CCCc1ccc(S(=O)(=O)N2Cc3nccnc3CC2C(=O)NO)cc1` (single isomer, unassigned; (+)) [the compound(43), (+)-N-Hydroxy-6-(4-propylbenzenesulfonyl)-5,6,7,8-tetrahydropyrido[3,4-b]pyrazine-7-carboxamide]: in assay [2] (read-out: IC50), the IC50 turned out to be 1900 nM.
On the same count and under the same terms, then `C=Cc1ccc(S(=O)(=O)N2Cc3nccnc3CC2C(=O)NO)cc1` (single isomer, unassigned; (+)) [the compound(44), (+)-N-Hydroxy-6-(4-vinylbenzenesulfonyl)-5,6,7,8-tetrahydropyrido[3,4-b]pyrazine-7-carboxamide], with 1100 nM.
For the compound `O=C(NO)C1Cc2nccnc2CN1S(=O)(=O)c1ccc(OCCCc2ccccc2)cc1` (single isomer, unassigned; (+)) [the compound(45), (+)-N-Hydroxy-6-[4-(3-phenylpropoxy)benzenesulfonyl]-5,6,7,8-tetrahydropyrido[3,4-b]pyrazine-7-carboxamide], half-maximal inhibition in assay [2] (IC50) was put at 630 nM.
As for `O=C(NO)C1Cc2nccnc2CN1S(=O)(=O)c1cccs1` (single isomer, unassigned; (+)) [the compound(46), (+)-N-Hydroxy-6-[(thiophen-2-yl)sulfonyl]-5,6,7,8-tetrahydropyrido[3,4-b]pyrazine-7-carboxamide], the “Amount of test compound required for 50% suppression of epidermal hyperplasia” value in assay [1] is listed as 69 10^−6 g/cm^2. Further, the half-inhibitory concentration (IC50) in assay [2] is 960 nM.
Regarding `O=C(NO)C1Cc2nccnc2CN1S(=O)(=O)/C=C/c1ccccc1` (single isomer, unassigned; (+)) [the compound(47), (+)-N-Hydroxy-6-(2-trans-phenylethenesulfonyl)-5,6,7,8-tetrahydropyrido[3,4-b]pyrazine-7-carboxamide], the half-inhibitory concentration (IC50) in assay [2] (read-out: IC50) was 1900 nM.
Still for that read-out and setting: then `CS(=O)(=O)CCCOc1ccc(S(=O)(=O)N2Cc3nccnc3CC2C(=O)NO)cc1` (single isomer, unassigned; (+)) [the compound(48), (+)-N-Hydroxy-6-[4-(3-methansulfonylpropoxy)benzenesulfonyl]-5,6,7,8-tetrahydropyrido[3,4-b]pyrazine-7-carboxamide], with 1800 nM; and `CNC(=O)C(NC(=O)C(CC(C)C)C(C)C(=O)NO)c1ccccc1` [the compound a, [4-(N-hydroxyamino)-2 (R)-isobutyl-3-methylsuccinyl]-L-phenylglycine-N-methylamide, reference compound], with 430 nM; and `CNC(=O)C(Cc1cccc2c1CCCC2)NC(=O)C(CC(C)C)C(C)C(=O)NO` [the compound b, [4-(N-hydroxyamino)-2 (R)-isobutyl-3-methylsuccinyl]-L-3-(5,6,7,8-tetrahydro-1-naphtyl)alanine-N-methylamide, reference compound], with 120 nM.
Regarding `CNC(=O)[C@@H](NC(=O)[C@H](CC(C)C)C(CN1CCc2ccccc2C1)C(=O)NO)c1ccccc1` (stereo partly drawn) [the compound c, [4-(N-hydroxyamino)-2 (R)-isobutyl-3-(1,2,3,4-tetrahydro-isoquinolylmethyl)succinyl]-L-phenylglycine —N-methylamide, reference compound], the “Amount of test compound required for 50% suppression of epidermal hyperplasia” value in assay [1] is recorded as 190 10^−6 g/cm^2. Besides, the 50% inhibitory concentration (IC50) in assay [2] (read-out: IC50) was found to be 54 nM.
The like results for `CNC(=O)C(Cc1cccc2ccccc12)NC(=O)C(CC(=O)NO)CC(C)C` [the compound d, [4-(N-hydroxyamino)-2 (R)-isobutylsuccinyl]-L-3-(1-naphtyl)-alanine-N-methylamide, reference compound] were, in that order, 40 10^−6 g/cm^2 and 1700 nM.
Consider `CNC(=O)C(Cc1ccccc1)NC(=O)C(C(C)C)C(C)C(=O)NO` [the compound e, 4-(N-hydroxyamino)-2 (R)-isopropyl-3-methylsuccinyl-L-phenylalanine-N-methylamide, reference compound], for which the half-maximal inhibitory concentration (IC50) in assay [2] (read-out: IC50) was determined as 100 nM.
Still for that read-out and setting: with `CNC(=O)C(Cc1ccccc1)NC(=O)C(CC(C)C)C(C)C(=O)NO` [the compound f, 4-(N-hydroxyamino)-2 (R)-isobutyl-3-methylsuccinyl-L-phenylalanine-N-methylamide, reference compound] the figure was 100 nM.
Still for that read-out and setting: with `COc1ccc(S(=O)(=O)N2C(C)c3nccnc3C(C)C2C(=O)NO)cc1` (stereo not drawn) [the compound(49), 7,8-cis-N-Hydroxy-5,8-dimethyl-6-(4-methoxybenzenesulfonyl)-5,6,7,8-tetrahydropyrido[3,4-b]pyrazine-7-carboxamide] the figure was 5600 nM.
